≈ marks a conversion by molar mass, not a printed value.
How the values were obtained:
[1] = tested on: Mycobacterium tuberculosis; assay: Antibacterial activity against Mycobacterium tuberculosis H37Ra measured after 7 days by resazurin reduction microplate assay; type: functional; settings: 168 h, time 7 day
[2] = tested on: Mycobacterium tuberculosis; assay: Antibacterial activity against Mycobacterium tuberculosis H37Rv assessed as reduction in pellet formation measured after 7 to 14 days by alamar blue assay; type: functional; settings: time 7-14 day
[3] = tested on: Mycobacterium tuberculosis; assay: Antibacterial activity against Mycobacterium tuberculosis IAR2 assessed as reduction in pellet formation measured after 7 to 14 days by alamar blue assay; type: functional; settings: time 7-14 day
[4] = tested on: Mycobacterium tuberculosis; assay: Antibacterial activity against Mycobacterium tuberculosis H37Ra measured after 7 days in presence of isoniazid by resazurin reduction microplate assay based checkerboard assay; type: functional; settings: 168 h, time 7 day
[5] = tested on: Mycobacterium tuberculosis; assay: Antibacterial activity against Mycobacterium tuberculosis H37Ra measured after 7 days in presence of rifampicin by resazurin reduction microplate assay based checkerboard assay; type: functional; settings: 168 h, time 7 day
[6] = tested on: Mycobacterium tuberculosis; assay: Antibacterial activity against Mycobacterium tuberculosis H37Ra measured after 7 days in presence of ethambutol by resazurin reduction microplate assay based checkerboard assay; type: functional; settings: 168 h, time 7 day
[7] = tested on: Mycobacterium tuberculosis; assay: Antibacterial activity against Mycobacterium tuberculosis H37Ra measured after 7 days in presence of moxifloxacin by resazurin reduction microplate assay based checkerboard assay; type: functional; settings: 168 h, time 7 day
[8] = tested on: Mycobacterium tuberculosis; assay: Additive antibacterial activity against Mycobacterium tuberculosis H37Ra assessed as isoniazid MIC at 3 to 50 uM measured after 7 days by resazurin reduction microplate assay based checkerboard assay; type: functional; settings: 168 h, dose 3-50 µM, time 7 day
[9] = tested on: Mycobacterium tuberculosis; assay: Additive antibacterial activity against Mycobacterium tuberculosis H37Ra assessed as rifampicin MIC at 3 to 50 uM measured after 7 days by resazurin reduction microplate assay based checkerboard assay; type: functional; settings: 168 h, dose 3-50 µM, time 7 day
[10] = tested on: Mycobacterium tuberculosis; assay: Additive antibacterial activity against Mycobacterium tuberculosis H37Ra assessed as ethambutol MIC at 3 to 50 uM measured after 7 days by resazurin reduction microplate assay based checkerboard assay; type: functional; settings: 168 h, dose 3-50 µM, time 7 day
[11] = tested on: Mycobacterium tuberculosis; assay: Additive antibacterial activity against Mycobacterium tuberculosis H37Ra assessed as moxifloxacin MIC at 3 to 50 uM measured after 7 days by resazurin reduction microplate assay based checkerboard assay; type: functional; settings: 168 h, dose 3-50 µM, time 7 day
[12] = tested on: Mycobacterium tuberculosis; assay: Additive antibacterial activity against Mycobacterium tuberculosis H37Ra assessed as fractional inhibitory concentration index at 3 to 50 uM measured after 7 days in presence of isoniazid by resazurin reduction microplate assay based checkerboard assay; type: functional; settings: dose 3-50 µM; time 7 day
[13] = tested on: Mycobacterium tuberculosis; assay: Additive antibacterial activity against Mycobacterium tuberculosis H37Ra assessed as fractional inhibitory concentration index at 3 to 50 uM measured after 7 days in presence of rifampicin by resazurin reduction microplate assay based checkerboard assay; type: functional; settings: dose 3-50 µM; time 7 day
[14] = tested on: Mycobacterium tuberculosis; assay: Additive antibacterial activity against Mycobacterium tuberculosis H37Ra assessed as fractional inhibitory concentration index at 3 to 50 uM measured after 7 days in presence of ethambutol by resazurin reduction microplate assay based checkerboard assay; type: functional; settings: dose 3-50 µM; time 7 day
[15] = tested on: Mycobacterium tuberculosis; assay: Additive antibacterial activity against Mycobacterium tuberculosis H37Ra assessed as fractional inhibitory concentration index at 3 to 50 uM measured after 7 days in presence of moxifloxacin by resazurin reduction microplate assay based checkerboard assay; type: functional; settings: dose 3-50 µM; time 7 day
[16] = target: T1, N-acetyltransferase Eis (Mycobacterium tuberculosis (strain ATCC 25618 / H37Rv), UniProt P9WFK7); assay: Inhibition of Mycobacterium tuberculosis H37Rv Eis protein using kanamycin as substrate preincubated for 10 mins followed by AcCoA addition and measured every 30 secs for 30 mins
T1 sequence (P9WFK7 whole entry): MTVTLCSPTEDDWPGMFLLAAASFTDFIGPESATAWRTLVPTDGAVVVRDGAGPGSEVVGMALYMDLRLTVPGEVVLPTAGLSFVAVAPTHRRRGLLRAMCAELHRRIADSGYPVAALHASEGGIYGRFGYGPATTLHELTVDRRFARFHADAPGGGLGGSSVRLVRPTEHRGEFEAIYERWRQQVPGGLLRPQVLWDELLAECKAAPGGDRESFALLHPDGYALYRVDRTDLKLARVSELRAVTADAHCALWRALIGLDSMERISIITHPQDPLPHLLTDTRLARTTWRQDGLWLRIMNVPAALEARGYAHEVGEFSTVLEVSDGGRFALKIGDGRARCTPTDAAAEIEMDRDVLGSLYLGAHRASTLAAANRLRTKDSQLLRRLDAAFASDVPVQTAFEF

[17] = target: T1, N-acetyltransferase Eis; assay: Competitive inhibition of Mycobacterium tuberculosis H37Rv Eis protein using varying concentrations of kanamycin as substrate assessed as inhibition constant by Lineweaver-Burk plot analysis
[18] = target: T2, N-acetyltransferase Eis (Mycobacterium tuberculosis (strain ATCC 25618 / H37Rv)) (UniProt P9WFK7); assay: Binding affinity to Mycobacterium tuberculosis H37Rv Eis protein assessed as gibbs free energy
T2 sequence (whole entry): T1 sequence (P9WFK7 whole entry)

[19] = compound: COc1ccc(C(=O)CSc2nc3ccccc3c(=N)n2-c2ccccc2)cc1; assay: Competitive inhibition of Mycobacterium tuberculosis H37Rv Eis protein using varying concentrations of kanamycin as substrate assessed as Km at 6.25 uM by Lineweaver-Burk plot analysis (reference value: 448 +/- 99 microM)
[20] = compound: COc1ccc(C(=O)CSc2nc3ccccc3c(=N)n2-c2ccccc2)cc1; assay: Competitive inhibition of Mycobacterium tuberculosis H37Rv Eis protein using varying concentrations of kanamycin as substrate assessed as Km at 11 uM by Lineweaver-Burk plot analysis (reference value: 448 +/- 99 microM)
[21] = compound: COc1ccc(C(=O)CSc2nc3ccccc3c(=N)n2-c2ccccc2)cc1; assay: Competitive inhibition of Mycobacterium tuberculosis H37Rv Eis protein using varying concentrations of kanamycin as substrate assessed as Km at 15 uM by Lineweaver-Burk plot analysis (reference value: 448 +/- 99 microM)
[22] = compound: COc1ccc(C(=O)CSc2nc3ccccc3c(=N)n2-c2ccccc2)cc1; assay: Competitive inhibition of Mycobacterium tuberculosis H37Rv Eis protein using varying concentrations of kanamycin as substrate assessed as Vmax at 6.25 uM by Lineweaver-Burk plot analysis (reference value: 119 +/- 11 microM)
[23] = compound: COc1ccc(C(=O)CSc2nc3ccccc3c(=N)n2-c2ccccc2)cc1; assay: Competitive inhibition of Mycobacterium tuberculosis H37Rv Eis protein using varying concentrations of kanamycin as substrate assessed as Vmax at 11 uM by Lineweaver-Burk plot analysis (reference value: 119 +/- 11 microM)
[24] = compound: COc1ccc(C(=O)CSc2nc3ccccc3c(=N)n2-c2ccccc2)cc1; assay: Competitive inhibition of Mycobacterium tuberculosis H37Rv Eis protein using varying concentrations of kanamycin as substrate assessed as Vmax at 15 uM by Lineweaver-Burk plot analysis (reference value: 119 +/- 11 microM)

C=CCn1c(SCC(=O)c2ccc(Cl)cc2)nc2sc3c(c2c1=O)CCCC3
MIC [1]: > 200 µM

C=CCn1c(SCC(=O)c2ccccc2)nc2ccccc2c1=N
MIC [1]: 200 µM (≈ 67.1 µg/mL)

CCOC(=O)/C(C#N)=C/c1c[nH]c2ccccc12
MIC [1]: > 200 µM

O=C(CSc1nc2sc3c(c2c(=O)n1-c1ccccc1)CCCC3)c1ccc(Cl)cc1
MIC [1]: > 200 µM

N#CCC(=O)NC(=O)/C(C#N)=C/c1c[nH]c2ccccc12
MIC [1]: > 200 µM

O=C(CSc1nc2sc3c(c2c(=O)n1-c1ccccc1)CCCC3)c1ccc(Cl)c(Cl)c1
MIC [1]: > 200 µM

N#C/C(=C\c1c[nH]c2cccc([N+](=O)[O-])c12)C(=O)NCCCc1ccccc1
MIC [1]: > 200 µM

N#C/C(=C\c1c[nH]c2ccccc12)C(=O)NCCN1CCCCC1
MIC [1]: 200 µM (≈ 64.5 µg/mL)

Cc1ccc2[nH]cc(/C=C(\C#N)C(=O)NCCCc3ccccc3)c2c1
MIC [1]: > 200 µM

C=CCn1c(SCC(=O)c2ccccc2)nc2sc3c(c2c1=O)CCCC3
MIC [1]: > 200 µM

Cc1ccc(C(=O)CSc2nc3sc4c(c3c(=O)n2Cc2ccccc2)CCCC4)cc1
MIC [1]: > 200 µM

C=CCn1c(SCC(=O)c2ccc(C)cc2)nc2sc3c(c2c1=O)CCCC3
MIC [1]: > 200 µM

NNC(=O)c1ccncc1 [ISONIAZID]
MIC [1]: 0.23 µM (≈ 0.0315 µg/mL)

Cc1cc(C)c2c(C(=O)NC3CCCCCC3)c[nH]c2c1
MIC [2]: 4 ng/mL (≈ 0.0141 µM) | MIC [3]: ≥ 250 ng/mL

N#C/C(=C\c1c[nH]c2ccccc12)C(=O)N1CCCC1
MIC [1]: > 200 µM

O=C(CSc1nc2sc3c(c2c(=O)n1Cc1ccccc1)CCCC3)c1cccc(O)c1
MIC [1]: 200 µM (≈ 92.5 µg/mL)

Cc1ccc(C(=O)CSc2nc3sc4c(c3c(=O)n2-c2ccccc2)CCCC4)cc1
MIC [1]: > 200 µM

COc1ccc(C(=O)CSc2nc3ccccc3c(=N)n2-c2ccccc2)cc1
MIC [1]: 50 µM (≈ 20.1 µg/mL) | MIC [4]: 50 µM | MIC [5]: 50 µM | MIC [6]: 50 µM | MIC [7]: 50 µM | MIC [8]: 0.23 µM | MIC [9]: 0.01 µM | MIC [10]: 8 µM | MIC [11]: 0.4 µM | fractional inhibitory concentration index (FICI) [12]: 2 | fractional inhibitory concentration index (FICI) [13]: 2 | fractional inhibitory concentration index (FICI) [14]: 2 | fractional inhibitory concentration index (FICI) [15]: 3 | IC50 [16]: 11 µM | Ki [17]: 14.4 µM | deltaG [18]: -7.04 kcal/mol

O=C(CSc1nc2sc3c(c2c(=O)n1Cc1ccccc1)CCCC3)c1ccc(Cl)c(Cl)c1
MIC [1]: > 200 µM

COc1c(N2C[C@@H]3CCCN[C@@H]3C2)c(F)cc2c(=O)c(C(=O)O)cn(C3CC3)c12 [MOXIFLOXACIN]
MIC [1]: 0.2 µM (≈ 0.0803 µg/mL)

N=c1c2ccccc2nc(SCC(=O)c2ccc(Cl)cc2)n1-c1ccccc1
MIC [1]: > 200 µM

N#C/C(=C\c1c[nH]c2ccccc12)C(=O)N1CCSCC1
MIC [1]: > 200 µM

B1: N-acetyltransferase Eis (Mycobacterium tuberculosis (strain ATCC 25618 / H37Rv)), P9WFK7 (protein)
chain: T1 sequence (P9WFK7 whole entry)
Km [19]: 717 µM | Km [20]: 721 µM | Km [21]: 632 µM | Vmax [22]: 112 µM/s | Vmax [23]: 108 µM/s | Vmax [24]: 94 µM/s
